From PubChem BioAssay (NCI)
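Five concentrations, 48 hours, 96-well plates. TGI: concentration producing complete growth inhibition.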

Assays:
Test in all cases: NCI tumour cell line growth inhibition, 48 h
CCRF-CEM leukemia = test system: CCRF-CEM leukemia
KM12 colon = test system: KM12 colon
DMS 273 small cell lung = test system: DMS 273 small cell lung
U251 CNS = test system: U251 CNS
NCI-H23 lung = test system: NCI-H23 lung
HOP-18 NSCLC = test system: HOP-18 NSCLC
OVCAR-3 ovarian = test system: OVCAR-3 ovarian
HOP-92 NSCLC = test system: HOP-92 NSCLC
SNB-75 CNS = test system: SNB-75 CNS
UACC-257 melanoma = test system: UACC-257 melanoma
OVCAR-5 ovarian = test system: OVCAR-5 ovarian
OVCAR-8 ovarian = test system: OVCAR-8 ovarian
SNB-19 CNS = test system: SNB-19 CNS
A549 NSCLC = test system: A549 NSCLC
SF-295 CNS = test system: SF-295 CNS
NCI-H460 lung = test system: NCI-H460 lung
KM20L2 colon = test system: KM20L2 colon
NCI/ADR-RES ovarian = test system: NCI/ADR-RES ovarian
SN12C renal = test system: SN12C renal
MCF7 breast = test system: MCF7 breast
NCI-H522 lung = test system: NCI-H522 lung
CAKI-1 renal = test system: CAKI-1 renal
SN12K1 renal = test system: SN12K1 renal
SNB-78 CNS = test system: SNB-78 CNS
MOLT-4 leukemia = test system: MOLT-4 leukemia
LOX IMVI melanoma = test system: LOX IMVI melanoma
HCT-116 colon = test system: HCT-116 colon
DMS 114 small cell lung = test system: DMS 114 small cell lung
HCT-15 colon = test system: HCT-15 colon
IGROV1 ovarian = test system: IGROV1 ovarian
XF 498 CNS = test system: XF 498 CNS
SK-MEL-2 melanoma = test system: SK-MEL-2 melanoma
DLD-1 colon = test system: DLD-1 colon
HCC-2998 colon = test system: HCC-2998 colon
SW-620 colon = test system: SW-620 colon
SF-268 CNS = test system: SF-268 CNS
HL-60(TB) leukemia = test system: HL-60(TB) leukemia
SF-539 CNS = test system: SF-539 CNS
SK-OV-3 ovarian = test system: SK-OV-3 ovarian
UACC-62 melanoma = test system: UACC-62 melanoma
SK-MEL-28 melanoma = test system: SK-MEL-28 melanoma
HOP-62 NSCLC = test system: HOP-62 NSCLC
A498 renal = test system: A498 renal
RXF 393 renal = test system: RXF 393 renal
NCI-H226 lung = test system: NCI-H226 lung
RPMI-8226 leukemia = test system: RPMI-8226 leukemia
P388/ADR leukemia = test system: P388/ADR leukemia
UO-31 renal = test system: UO-31 renal
SK-MEL-5 melanoma = test system: SK-MEL-5 melanoma
K-562 leukemia = test system: K-562 leukemia
P388 leukemia = test system: P388 leukemia
MALME-3M melanoma = test system: MALME-3M melanoma
OVCAR-4 ovarian = test system: OVCAR-4 ovarian
HT29 colon = test system: HT29 colon
COLO 205 colon = test system: COLO 205 colon
M19-MEL melanoma = test system: M19-MEL melanoma
EKVX NSCLC = test system: EKVX NSCLC

CC(=O)OC1C(O)C(C)OC(OC(=O)C2CCC3C(C2)OC2(CC(OC(=O)/C=C/c4ccccc4)C(C)CO2)C32CO2)C1OC1OC(C)C(O)C(O)C1O (configuration not stated)
TGI (CCRF-CEM leukemia): 1260 nM | TGI (KM12 colon): 144 nM | TGI (DMS 273 small cell lung): 151 nM | TGI (U251 CNS): 120 nM | TGI (NCI-H23 lung): 220 nM | TGI (HOP-18 NSCLC): 585 nM | TGI (OVCAR-3 ovarian): 91.7 nM | TGI (HOP-92 NSCLC): 39.6 nM | TGI (SNB-75 CNS): 135 nM | TGI (UACC-257 melanoma): 72.6 nM | TGI (OVCAR-5 ovarian): 1240 nM | TGI (OVCAR-8 ovarian): 823 nM | TGI (SNB-19 CNS): 90.9 nM | TGI (A549 NSCLC): 1300 nM | TGI (SF-295 CNS): 542 nM | TGI (NCI-H460 lung): 236 nM | TGI (KM20L2 colon): 1420 nM | TGI (NCI/ADR-RES ovarian): 146000 nM | TGI (SN12C renal): 833 nM | TGI (MCF7 breast): 91.7 nM | TGI (NCI-H522 lung): 48.7 nM | TGI (CAKI-1 renal): 9740 nM | TGI (SN12K1 renal): 82.8 nM | TGI (SNB-78 CNS): 104 nM | TGI (MOLT-4 leukemia): 5050 nM | TGI (LOX IMVI melanoma): 362 nM | TGI (HCT-116 colon): 709 nM | TGI (DMS 114 small cell lung): 56.3 nM | TGI (HCT-15 colon): 39200 nM | TGI (IGROV1 ovarian): 131 nM | TGI (XF 498 CNS): 126 nM | TGI (SK-MEL-2 melanoma): 38.9 nM | TGI (DLD-1 colon): 5690 nM | TGI (HCC-2998 colon): 88.1 nM | TGI (SW-620 colon): 568 nM | TGI (SF-268 CNS): 150 nM | TGI (HL-60(TB) leukemia): 579 nM | TGI (SF-539 CNS): 105 nM | TGI (SK-OV-3 ovarian): 213 nM | TGI (UACC-62 melanoma): 114 nM | TGI (SK-MEL-28 melanoma): 68.5 nM | TGI (HOP-62 NSCLC): 223 nM | TGI (A498 renal): 315 nM | TGI (RXF 393 renal): 208 nM | TGI (NCI-H226 lung): 100 nM | TGI (RPMI-8226 leukemia): 1150 nM | TGI (P388/ADR leukemia): 113000 nM | TGI (UO-31 renal): 33200 nM | TGI (SK-MEL-5 melanoma): 89.7 nM | TGI (K-562 leukemia): 2290 nM | TGI (P388 leukemia): 1390 nM | TGI (MALME-3M melanoma): 93 nM | TGI (OVCAR-4 ovarian): 70.6 nM | TGI (HT29 colon): 576 nM | TGI (COLO 205 colon): 56.9 nM | TGI (M19-MEL melanoma): 49.7 nM | TGI (EKVX NSCLC): 246 nM
